One data set concerns the target T1, hMetAP2 (Homo sapiens, UniProt P50579).
T1 construct: made in house
Nature of the data set: MetAP enzymatic assay, hMetAP2. It is filed as biochemical.

In another data set the target is T2, hMetAP1 (Homo sapiens, UniProt P53582).
T2 construct: made in house
Nature of the data set: MetAP enzymatic assay, hMetAP1. It counts as biochemical.

Data set [1] deals with HUVEC. As to the kind of experiment: HUVEC proliferation, [3H]-thymidine incorporation assay. It is filed as cell-based, human. As to the method: HCC1954 cells were grown in RPMI1640 containing 10% FBS. HUVEC were grown using the EGM-2 bullet kit (Cambrex) as per manufacturer's instructions. The cells were maintained in a humidified incubator adjusted to 5% CO2. For drug screening, 10 mM stock solutions of Johns Hopkins Drug Library were arrayed in 96-well plates and screened at a final concentration of 10 μM. The cell growth was determined using a [^3H]-thymidine incorporation assay. Cells (typically 5,000 cells/well) were seeded in 96-well plates containing 0.2 ml of growth media and allowed to adhere for 24 h. The cells were then treated with drugs for 24 h. Cells were pulsed with 1 μCi [^3H]-thymidine (MP Biomedicals, 6.7 Ci mmol^−1) for 8 h and harvested, upon trypsin treatment, onto glass fiber filters (Wallac, Turku, Finland), from which ^3H counts were determined using a Perkin Elmer MicroBeta plate reader.
A general note: Uptake of a labelled nucleoside into DNA is a usual measure of proliferation.

The next data set has as its system HFF. As to the kind of experiment: HFF proliferation (selectivity). It is filed as cell-based.
The test system of data set [2] is acetylation of p53 (K382), α-tubulin and histone-H3. As to the kind of experiment: Acetylation status of sirtuin substrates in HUVEC (Western blot). Conditions: HUVEC; for acetylation status of tubulin or histone-H3: 6 h or 20 h. It counts as cell-based, human. The procedure:
Cells were lysed by adding 1 volume of 2× Laemmli buffer and were then boiled for 5 min. The samples were separated by SDS-PAGE and transferred to nitrocellulose membrane (Bio-Rad). Proteins were detected using primary antibodies for p53 (Santa Cruz), met-14-3-3γ (Novus), p21 (Santa Cruz), Rb (Santa Cruz), MetAP2 (Hu, X. et al (2006) Proc. Natl. Acad. Sci. U.S.A. 103, 18148-18153), SirT1 (Santa Cruz), acetyl-p53-K382 (Abeam), acetyl-tubulin (Sigma), histone-H3 (Santa Cruz), acetyl-H3 (Santa Cruz) and α-tubulin (TU-02, Santa Cruz) followed by the incubation with horseradish peroxidase (HRP)-conjugated anti-mouse or anti-rabbit antibodies (Santa Cruz) and enhanced chemiluminescence (ECL, Amersham).
(In general: Immunoblotting shows a protein as a band on a membrane.)

Data set [3] has as its system HUVEC. As to the kind of experiment: Senescence associated-β-galactosidase (SA-β-gal) staining in HUVEC. It is filed as cell-based, human. As to the method:
Cells in 6-well plates were washed with PBS and fixed with 3% paraformaldehyde. After washing with PBS, the cells were incubated for 24 h at 37° C. (without CO2, protected from light) in freshly prepared SA-β-gal staining solution containing 1 mg/ml 5-bromo-4-chloro-3-indolyl β-D-galactopyranoside (X-gal), 5 mM potassium ferrocyanide, 5 mM potassium ferricyanide, 150 mM NaCl, 2 mM MgCl2 and 40 mM citric acid, titrated with NaH2PO4 to pH 6.0. SA-β-gal solution was then removed and the cells were washed with PBS. The stained cells were observed under a microscope.

Setting [4] is: hMetAP2 Co^2+ IC50, Table 2, in the presence of Co^2+.
Setting [5] is: read-out: hMetAP1 Co^2+ IC50, Table 2, in the presence of Co^2+.
The mark [6] stands for this setting: Homo sapiens, HUVEC, read-out: Selectivity HUVEC IC50.
Where [7] appears, read: Table 2, in the presence of Co^2+, read-out: hMetAP2 Co^2+ IC50.
Where [8] appears, read: Table 2, in the presence of Co^2+, read-out: hMetAP1 Co^2+ IC50.
Where [9] appears, read: Table 2, in the presence of Mn^2+, read-out: hMetAP1 Mn^2+ IC50.
The mark [10] stands for this setting: Table 3, in the presence of Co^2+, read-out: hMetAP2 Co^2+ IC50.
The mark [11] stands for this setting: Table 3, in the presence of Mn^2+, read-out: hMetAP2 Mn^2+ IC50.
[12] abbreviates: Table 3, in the presence of Co^2+, read-out: hMetAP1 Co^2+ IC50.
The mark [13] stands for this setting: Table 3, in the presence of Mn^2+, read-out: hMetAP1 Mn^2+ IC50.
[14] abbreviates: Table 3, read-out: Selectivity HUVEC IC50.
Setting [15] is: Homo sapiens, HUVEC, Table 4, read-out: HUVEC IC50.

Where two headings read alike, the source gives them in different places.

T1 sequence (P50579 whole entry): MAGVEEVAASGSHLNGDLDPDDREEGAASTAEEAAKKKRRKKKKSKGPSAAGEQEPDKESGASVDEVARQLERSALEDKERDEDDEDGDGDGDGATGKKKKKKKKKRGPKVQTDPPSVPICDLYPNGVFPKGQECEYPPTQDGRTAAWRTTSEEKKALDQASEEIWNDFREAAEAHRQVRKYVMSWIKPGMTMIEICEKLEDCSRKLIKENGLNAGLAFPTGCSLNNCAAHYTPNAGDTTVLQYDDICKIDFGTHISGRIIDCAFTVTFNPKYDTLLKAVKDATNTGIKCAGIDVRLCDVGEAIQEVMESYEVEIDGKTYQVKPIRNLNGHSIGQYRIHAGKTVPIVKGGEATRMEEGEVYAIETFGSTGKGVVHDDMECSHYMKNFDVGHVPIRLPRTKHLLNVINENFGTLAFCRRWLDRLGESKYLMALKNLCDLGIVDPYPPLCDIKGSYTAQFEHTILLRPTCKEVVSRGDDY

As for `Oc1cccc2cccnc12` [Entry 1a], the half-inhibitory concentration (IC50) at hMetAP2 (setting [4]) was more than 50000 nM; at hMetAP2 (hMetAP2 Mn^2+ IC50, Table 2, in the presence of Mn^2+), 2000 nM; on hMetAP1 (setting [5]), more than 50 µM; in the data set with HUVEC [1] (setting [6]), 6200 nM; with HFF (Homo sapiens, HFF, Table 2), 6.6 µM.

For `O=S(=O)(O)c1ccc(O)c2ncccc12` [Entry 1d], the half-maximal inhibitory concentration (IC50) on hMetAP2 (setting [4]) is more than 50000 nM; with HUVEC [1] (setting [6]) it was more than 50000 nM; in the data set with HFF (Homo sapiens, HFF, Table 2) it was more than 50 µM.

For the compound `OCCN(CCO)Cc1cc(Cl)c2cccnc2c1O` [Entry 2a, 5-Chloro-7-(N,N-bis(2-hydroxyethyl)aminomethyl)-8-hydroxy-quinoline], the concentration for half-maximal inhibition (IC50) on hMetAP2 (setting [7]) was more than 50000 nM; on hMetAP1 (setting [8]), more than 50 µM; on hMetAP1 (setting [9]), more than 50 µM.

`Oc1c(C(c2ccccc2)N2CCOCC2)cc(Cl)c2cccnc12` (stereo not drawn) [Entry 2f, 5-Chloro-7-(1-phenyl-1-(N-morpholino)-methyl)-8-hydroxy-quinoline]: the melting point stood at 89 °C.

For the compound `Oc1c(C(Nc2nccs2)c2ccco2)cc(Cl)c2cccnc12` (stereo not drawn) [Entry 2g, 5-Chloro-7-(1-(2-furyl)-1-(2-thiazolylamino)-methyl)-8-hydroxy-quinoline], the melting point amounted to 126 °C. In addition, the concentration for half-maximal inhibition (IC50) at hMetAP2 (setting [7]) is more than 50000 nM. In addition, the 50% inhibitory concentration (IC50) at hMetAP2 (Table 2, in the presence of Mn^2+, read-out: hMetAP2 Mn^2+ IC50) was 2800 nM. On hMetAP1 (setting [8]), the concentration for half-maximal inhibition (IC50) was more than 50 µM. Further, the IC50 at hMetAP1 (setting [9]) was more than 50 µM. Besides, the IC50 in the data set with HUVEC [1] (Homo sapiens, HUVEC, Table 2, read-out: Selectivity HUVEC IC50) amounted to 2500 nM. In addition, it took 13.5 µM to reach half-maximal inhibition in the data set with HFF (Homo sapiens, HFF, Table 2) (IC50).

`C=CCOc1ccc(Cl)c2cccnc12` [Entry 3a, 8-Allyloxy-5-chloroquinoline]: the 50% inhibitory concentration (IC50) at hMetAP2 (read-out: hMetAP2 Co^2+ IC50, Table 2, in the presence of Co^2+) was more than 50000 nM; on hMetAP1 (setting [5]) it was more than 50 µM.

As to `O=C(Nc1cc(Cl)cc(Cl)c1)Oc1c(Cl)cc(Cl)c2cccnc12` [Entry 4b, 5,7-Dichloro-8-quinolyl-N-(3,5-dichlorophenyl)-carbamate], the IC50 on hMetAP2 (setting [10]) was more than 50000 nM; on hMetAP2 (setting [11]), 900 nM; at hMetAP1 (setting [12]), more than 50 µM; at hMetAP1 (setting [13]), more than 50 µM; with HUVEC [1] (setting [14]), 110 nM; in the data set with HFF (Table 3) it was 3 µM.

Consider `O=C(Nc1cc(Cl)cc(Cl)c1)Oc1ccc(Cl)c2cccnc12` [Entry 4c, 5-Chloro-8-quinolyl-N-(3,5-dichlorophenyl)-carbamate], for which the half-inhibitory concentration (IC50) is 2200 nM on hMetAP2 (setting [10]); 70 nM at hMetAP2 (setting [11]); more than 50 µM on hMetAP1 (setting [12]); 12.6 µM on hMetAP1 (setting [13]); 1200 nM with HUVEC [1] (setting [14]); 8 µM in the data set with HFF (Table 3).

In the case of `O=C(Nc1ccccc1)Oc1c(Cl)cc(Cl)c2cccnc12` [Entry 4d, 5,7-Dichloro-8-quinolyl-N-phenylcarbamate], the 50% inhibitory concentration (IC50) is more than 50000 nM at hMetAP2 (setting [10]); 1600 nM on hMetAP2 (setting [11]); more than 50 µM at hMetAP1 (setting [12]); more than 50 µM on hMetAP1 (setting [13]); 15.3 µM in the data set with HFF (Table 3).

As to `O=C(Nc1ccccc1)Oc1ccc(Cl)c2cccnc12` [Entry 4e, 5-Chloro-8-quinolyl-N-phenylcarbamate], the IC50 at hMetAP2 (setting [10]) was 1900 nM; at hMetAP2 (setting [11]), 30 nM; on hMetAP1 (setting [12]) it was more than 50 µM; at hMetAP1 (setting [13]) it was 11.9 µM; in the data set on HUVEC [1] (setting [14]), 2100 nM; with HFF (Table 3), 8.8 µM.

With `O=C(Nc1ccc(F)cc1)Oc1c(Cl)cc(Cl)c2cccnc12` [Entry 4f, 5,7-Dichloro-8-quinolyl-N-(4-fluorophenyl)-carbamate], the IC50 on hMetAP2 (setting [10]) was more than 50000 nM; at hMetAP2 (setting [11]), 3100 nM; at hMetAP1 (setting [12]), more than 50 µM; at hMetAP1 (setting [13]), more than 50 µM; in the data set on HFF (Table 3), 37 µM.

On to `O=C(Nc1cc(F)cc(F)c1)Oc1ccc(Cl)c2cccnc12` [Entry 4g, 5-Chloro-8-quinolyl-N-(3,5-difluorophenyl)-carbamate], for which the concentration for half-maximal inhibition (IC50) was 45700 nM on hMetAP2 (setting [10]); 1800 nM at hMetAP2 (setting [11]); more than 50 µM on hMetAP1 (setting [12]); more than 50 µM on hMetAP1 (setting [13]); 16.1 µM with HFF (Table 3).

`O=C(NCCCl)Oc1ccc(Cl)c2cccnc12` [Entry 4h, 5-Chloro-8-quinolyl-N-(2-chloroethyl)-carbamate]: the half-inhibitory concentration (IC50) with HUVEC [1] (setting [14]) came out at 2300 nM; with HFF (Table 3) it was 8.4 µM.

In the case of `O=C(NCCCl)Oc1c(Cl)cc(Cl)c2cccnc12` [Entry 4i, 5,7-Dichloro-8-quinolyl-N-(2-chloroethyl)-carbamate], the half-inhibitory concentration (IC50) is more than 50 µM at hMetAP1 (setting [12]), more than 50 µM at hMetAP1 (setting [13]), 2400 nM in the data set with HUVEC [1] (setting [14]) and 11.1 µM in the data set on HFF (Table 3).

Take `Cc1ccc2c([N+](=O)[O-])cc([N+](=O)[O-])c(O)c2n1` [Entry 5b, 2-Methyl-5,7-dinitro-8-hydroxy-quinoline]: in the data set with HUVEC [1] (setting [15]), the half-maximal inhibitory concentration (IC50) is 17300 nM.

Regarding `CC(C)(C)OC(=O)Oc1ccc([N+](=O)[O-])c2cccnc12` [Entry 5c, 5-Nitro-8-tert-butoxycarbonyloxyquinoline], in the data set with HUVEC [1] (setting [15]), the 50% inhibitory concentration (IC50) is 290 nM.

As for `CCOC(=O)COc1ccc([N+](=O)[O-])c2cccnc12` [Entry 5d, Ethyl 1-(5-Nitro-quinolin-8-yloxy)-acetate], the IC50 with HUVEC [1] (Table 4, read-out: HUVEC IC50) came out at 7300 nM.

Consider `NC(=O)COc1ccc([N+](=O)[O-])c2cccnc12` [Entry 5e, 1-(5-Nitro-quinolin-8-yloxy)-acetamide], for which the IC50 in the data set with HUVEC [1] (Table 4, read-out: HUVEC IC50) was 6300 nM.

Regarding `CC(/C=C/C(=O)NO)=C\[C@@H](C)C(=O)c1ccc(N(C)C)cc1` [TSA], the “acetylation status of tubulin or histone-H3” value in data set [2] is “induced hyper-acetylation”. In addition, the p53 acetylation result in data set [2] (early time point) is recorded as “increased p53 acetylation”.

Consider `CC(NC(=O)c1ccccc1/N=C/c1c(O)ccc2ccccc12)c1ccccc1` (stereo not drawn) [sirtinol], for which the “acetylation status of tubulin or histone-H3” value in data set [2] is “induced hyper-acetylation”.

As for `CCCC(CCC)C(=O)O` [valproic acid], the “premature senescence in HUVEC” value in the data set on HUVEC [3] (72 h, valproic acid 0.1 mM, TNP-470 20 nM) is given as “induced premature senescence”. Moreover, in the data set with HUVEC [3] (72 h treatment, then fresh media for an additional 48 h), the reversibility of senescence result was “reversed their senescence state”.

A word on the IC50: it is the point on the concentration scale where inhibition reaches its midpoint. For orientation: melting point means the temperature of the solid-liquid transition.

These data come from patent publication US8729097B2, “Quinoline compounds as inhibitors of angiogenesis, human methionine aminopeptidase, and SIRT1, and methods of treating disorders” (The Johns Hopkins University, priority 2008, dated 2014).
